The text below walks through data of ChEMBL document CHEMBL5385929, “Tabersonine Enhances Olaparib Sensitivity through FHL1-Mediated Epithelial-Mesenchymal Transition in an Ovarian Tumor” (J Nat Prod, 2024).

A short description of data set [1]: Toxicity in BALB/c mouse xenografted with human A2780 cells assessed as animal's death at 30 mg/kg, ip administered every other day and measured on day 6. The data set is classed as organism-based. The conditions noted are these: in vivo, 144 h, time 6 day.
Data set [2] deals with A2780. In words: Antitumor activity against human A2780 cells xenografted in BALB/c mouse assessed as decrease in tumor growth at 5 to 15 mg/kg, ip administered every other day for 2 weeks. To be noted: dose 5-15 mg/kg. The format is functional, organism-based.
In data set [3] the test system is A2780. Description: Effect on FHL1 mRNA expression in human A2780 cells at 5 to 20 uM by real-time PCR analysis. The data set is classed as functional, cell-based. The conditions noted are these: dose 5-20 µM.
For a further data set, the system named is SK-OV-3. In words: Downregulation of EMT signalling in human SK-OV-3 cells transfected with shFHL1-2 RNA assessed as E-cadherin protein expression at 10 uM by western blot analysis. The data set is classed as functional, cell-based.

The source made the active and inactive calls. The calls are words filed in the database; no cut-off is given here.

`CC[C@]12C=CCN3CC[C@]4(C(=C(C(=O)OC)C1)Nc1ccccc14)[C@@H]32` [TABERSONINE]: the Activity result in data set [1] is “Toxic”. Moreover, in the data set on A2780 [2], the result was Active. Also, the outcome with A2780 [3] was inactive. In the data set with SK-OV-3, the inhibition result is “inactive”.
